According to patent US20130252943A1, “BICYCLIC OXAZOLE LACTAMS AS ALLOSTERIC MODULATORS OF MGLUR5 RECEPTORS” (VANDERBILT UNIVERSITY, priority 2012, published 2013):

Key:
[1] = target: human mGluR5 (Homo sapiens, UniProt P41594); assay: Cell-based functional Ca2+ mobilization assay (FDSS), potentiation of glutamate EC20 response, H10H cell line; details: HEK H10H cells; for Emax: maximum average response at a single concentration, as percent of maximal glutamate response, glutamate EC20; for EC50: positive allosteric modulation in presence of glutamate EC20, concentration in mol/L
From the text: Human mGluR5a cDNA in pCMV6-XL6 mammalian expression plasmid was purchased from OriGene Technologies, Inc. (catalogue number SC326357) and subcloned into pcDNA3.1(−). Human embryonic kidney (HEK)293A cells were then transfected with human mGluR5a pcDNA3.1(−) using LipofectAmine-2000 (Invitrogen) and monoclones were selected and tested for functional response using a Ca^2+ mobilization assay. Monoclones were named for the species (“H” for human) plus the location on the plate (e.g. “10H”).
HEK cells transfected with the human mGluR5a receptor (H10H or H12H cell line) were plated at 15,000 cells/well in clear-bottomed poly-D-lysinecoated assay plates (BD Falcon) in glutamate-glutamine-free growth medium and incubated overnight at 37° C. and 5% CO2. Cell-lines used were either the H10H or H12H cell-lines expressing the human mGluR5 receptor. The following day, the growth medium was removed and the cells were washed with assay buffer containing 1× Hank's balanced salt solution (Invitrogen, Carlsbad, Calif.), 20 mM HEPES, 2.5 mM probenecid, pH 7.4 and left with 20 μL of this reagent. Following this step, the cells were loaded with calcium indicator dye, fluo-4 AM, to a final concentration of 2 μM and incubated for 40-45 min at 37° C. The dye solution was removed and replaced with assay buffer. Cell plates were held for 10-15 min at room temperature and were then loaded into the Functional Drug Screening System 6000 (FDSS 6000, Hamamatsu, Japan).
After establishment of a fluorescence baseline for about 3 seconds, the compounds of the present invention were added to the cells, and the response in cells was measured. 2.3 minutes later an EC20 concentration of the mGluR5 receptor agonist glutamate was added to the cells, and the response of the cells was measured for about 1.7 minutes. All test compounds were dissolved and diluted to a concentration of 10 mM in 100% DMSO and then serially diluted into assay buffer for a 2× stock solution in 0.6% DMSO; stock compounds were then added to the assay for a final DMSO concentration of 0.3% after the first addition to the assay well. Calcium fluorescence measures were recorded as fold over basal fluorescence; raw data was then normalized to the maximal response to glutamate.
The concentration-response curves of compounds of the present invention, obtained in the presence of EC20 of mGluR5 receptor agonist glutamate to determine positive allosteric modulation, were generated using Microsoft Excel with IDBS XLFit add-ins. The raw data file containing all time points was used as the data source in the analysis template. This was saved by the FDSS as a tab-delimited text file. Data were normalized using a static ratio function (F/F0) for each measurement of the total 350 values per well divided by each well's initial value. Data was then reduced as to peak amplitudes (Max—Initial Min) using a time range that starts approximately 1 second after the glutamate EC20 addition and continues for approximately 40 seconds. This is sufficient time to capture the peak amplitude of the cellular Calcium response. Individual amplitudes were expressed as % EMax by multiplying each amplitude by 100 and then dividing the product by the mean of the amplitudes derived from the glutamate ECMax-treated wells. pEC50 values for test compounds were generated by fitting the normalized values versus the log of the test compound concentration (in mol/L) using a 4 parameter logistic equation where none of the parameters were fixed. Each of the three values collected at each concentration of test compound were weighted evenly. Individual values falling outside the 95% prediction limits of the curve fit were automatically excluded from the fit. […] These two methods are in good agreement for curves with a clear plateau at the high concentration range. […] For consistency purposes across the range of potencies observed, all EMax values reported in this application are calculated using the maximum average response at a single concentration. […]

Sequence of human mGluR5 (P41594 21-1180 isoform P41594-2 limits assumed): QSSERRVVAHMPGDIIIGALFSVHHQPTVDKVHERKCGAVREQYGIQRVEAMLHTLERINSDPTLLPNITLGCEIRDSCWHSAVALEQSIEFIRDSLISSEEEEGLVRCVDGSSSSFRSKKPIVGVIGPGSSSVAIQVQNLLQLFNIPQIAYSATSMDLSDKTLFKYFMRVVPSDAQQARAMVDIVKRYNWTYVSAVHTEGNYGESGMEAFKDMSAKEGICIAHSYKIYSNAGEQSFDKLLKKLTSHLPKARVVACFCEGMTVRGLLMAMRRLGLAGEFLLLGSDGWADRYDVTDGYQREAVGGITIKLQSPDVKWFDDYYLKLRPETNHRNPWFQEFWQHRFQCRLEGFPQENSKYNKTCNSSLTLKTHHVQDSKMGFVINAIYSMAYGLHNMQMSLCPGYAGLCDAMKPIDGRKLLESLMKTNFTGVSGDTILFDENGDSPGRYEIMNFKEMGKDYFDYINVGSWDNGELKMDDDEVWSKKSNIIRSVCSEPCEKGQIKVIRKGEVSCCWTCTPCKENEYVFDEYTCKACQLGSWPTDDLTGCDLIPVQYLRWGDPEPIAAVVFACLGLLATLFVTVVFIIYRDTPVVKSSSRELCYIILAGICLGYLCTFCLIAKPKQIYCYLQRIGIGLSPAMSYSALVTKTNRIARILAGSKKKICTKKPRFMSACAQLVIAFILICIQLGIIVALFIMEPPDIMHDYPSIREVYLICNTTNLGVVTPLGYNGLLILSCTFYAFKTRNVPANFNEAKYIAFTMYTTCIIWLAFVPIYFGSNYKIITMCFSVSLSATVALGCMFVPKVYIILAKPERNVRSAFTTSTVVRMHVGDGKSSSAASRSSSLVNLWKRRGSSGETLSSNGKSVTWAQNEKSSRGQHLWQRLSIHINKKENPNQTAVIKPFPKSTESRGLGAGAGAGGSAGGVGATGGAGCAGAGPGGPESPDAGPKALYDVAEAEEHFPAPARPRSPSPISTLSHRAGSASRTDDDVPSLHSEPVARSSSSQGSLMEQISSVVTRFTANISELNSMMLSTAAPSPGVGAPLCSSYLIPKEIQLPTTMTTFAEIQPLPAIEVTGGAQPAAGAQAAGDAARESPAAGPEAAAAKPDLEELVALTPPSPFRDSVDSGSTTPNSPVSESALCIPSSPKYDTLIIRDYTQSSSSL

melting point [°C]	Emax [1] [%]	EC50 [1] [nM]	SMILES
188.7	38	> 30200	O=C1c2oc(COc3ccccc3)nc2CCN1c1cccnc1 [Compound B9]
116.1	74	1100	O=C1c2oc(COc3ccccc3)nc2CCN1c1ccccc1F [Compound B2]
116.3	53	> 10000	Cc1cccc(N2CCc3nc(COc4ccccc4)oc3C2=O)n1 [Compound B14]
137.2	75	646	O=C1c2oc(COc3ccccc3)nc2CCN1c1cccc(F)c1F [Compound B4]
132.5	71	1320	O=C1c2oc(COc3ccccc3)nc2CCN1c1cccc(F)c1 [Compound B3]
151.7	77	501	O=C1c2oc(COc3ccccc3)nc2CCN1c1ccc(F)c(F)c1 [Compound B6]
135.8	83	447	O=C1c2oc(COc3ccccc3)nc2CCN1c1ccc(F)cc1 [Compound B1, 5-(4-fluoro-phenyl)-2-phenoxymethyl-6,7-dihydro-5H-oxazolo[5,4-c]pyridin-4-one]
123.3	32	> 30200	O=C1c2oc(COc3ccccc3)nc2CCN1c1ccccn1 [Compound B8]
131.7	76	1120	O=C1c2oc(COc3ccccc3)nc2CCN1c1ccccc1 [Compound B13]
–	73	891	O=C1c2oc(COc3ccccc3)nc2CCN1c1c(F)cccc1F [Compound B5]
138.8	43	> 10000	Cc1cccnc1N1CCc2nc(COc3ccccc3)oc2C1=O [Compound B17]
131.9	62	2140	O=C1c2oc(COc3ccccc3)nc2CCN1c1ccc(F)cn1 [Compound B11]
130.9	49	> 10000	O=C1c2oc(COc3ccccc3)nc2CCN1c1ccncc1 [Compound B10]

Further lines, the molecule ahead of its results:

SMILES	melting point [°C]	Emax [1] [%]	EC50 [1] [nM]
O=C1c2oc(COc3ccccc3)nc2CCN1c1cncc(F)c1 [Compound B12]	133.1	27	> 30200
O=C1c2oc(COc3ccccc3)nc2CCN1c1cc(F)cc(F)c1 [Compound B7]	150.7	63	1510
CC1CN(c2ccc(F)cc2)C(=O)c2oc(COc3ccccc3)nc21 (stereo not shown) [Compound B28]	–	79	646
COc1nccnc1N1CCc2nc(COc3ccccc3)oc2C1=O [Compound B25]	131.1	47	> 10000
CN1CCc2nc(COc3ccccc3)oc2C1=O [Compound B33, 5-methyl-2-phenoxymethyl-6,7-dihydro-5H-oxazolo[5,4-c]pyridin-4-one]	–	35	> 30200
Cc1ccc(N2CCc3nc(COc4ccccc4)oc3C2=O)nc1 [Compound B15]	132.4	61	> 10000
Cc1cc(N2CCc3nc(COc4ccccc4)oc3C2=O)ncc1F [Compound B21]	125.7	56	> 10000
Cc1cncc(N2CCc3nc(COc4ccccc4)oc3C2=O)n1 [Compound B24]	138.8	44	> 10000
Cc1ccnc(N2CCc3nc(COc4ccccc4)oc3C2=O)c1 [Compound B16]	> 300	38	> 10000
COc1nc(N2CCc3nc(COc4ccccc4)oc3C2=O)ncc1F [Compound B22, 5-(5-fluoro-4-methoxy-pyrimidin-2-yl)-2-phenoxymethyl-6,7-dihydro-5H-oxazolo[5,4-c]pyridin-4-one]	216.7	65	1290
COc1nccc(N2CCc3nc(COc4ccccc4)oc3C2=O)n1 [Compound B23]	142	53	3090
CC1Cc2nc(COc3ccccc3)oc2C(=O)N1c1ccc(F)cc1 (racemic) [Compound B27, (rac)-5-(4-fluoro-phenyl)-6-methyl-2-phenoxymethyl-6,7-dihydro-5H-oxazolo[5,4-c]pyridin-4-ONE]	–	64	575
O=C1NCCc2nc(COc3ccccc3)oc21 [Compound B29, 2-phenoxymethyl-6,7-dihydro-5H-oxazolo[5,4-c]pyridin-4-one]	148.5	21	> 30200
CN1CCCc2nc(COc3ccccc3)oc2C1=O [Compound B39]	–	25	> 30200
C[C@@H](N1CCc2nc(COc3ccccc3)oc2C1=O)C(C)(C)C [Compound B35, (R)-2-phenoxymethyl-5-(1,2,2-trimethyl-propyl)-6,7-dihydro-5H-oxazolo[5,4-c]pyridin-4-one]	–	54	977
O=C1c2oc(COc3ccccc3)nc2CCN1Cc1ccccc1 [Compound B36]	–	59	891
O=C1NCCCc2nc(COc3ccccc3)oc21 [Compound B37, 2-phenoxymethyl-5,6,7,8-tetrahydro-3-oxa-1,5-diaza-azulen-4-one]	–	21	> 30200
O=C1c2oc(COc3ccccc3)nc2CCN1CC1CC1 [Compound B34]	119.2	68	3470
